According to patent US20210139453A1, “(HETERO)ARYL SULFONAMIDE COMPOUND AND FORMULATION FOR CONTROLLING HARMFUL ORGANISMS” (Nippon Soda Co., Ltd., priority 2018, published 2021):

System: Mythimna separata
Test: Efficacy test against Mythimna separata (artificial feed mixed with emulsion)
Conditions: in vivo
Excerpt: Five parts of the (hetero)aryl sulfonamide compound of the present invention, 93.6 parts of dimethylformamide and 1.4 parts of a polyoxyethylene alkyl aryl ether were mixed together and dissolved to obtain an emulsion (I) containing 5% of the active ingredient.
For the control, 93.6 parts of dimethylformamide and 1.4 parts of a polyoxyethylene alkyl aryl ether were mixed together and dissolved to obtain an emulsion (II).
Insect mortality rate(%)=(number of dead insects/number of test insects)×100 Nematode mortality rate(%)=(number of dead nematodes/number of test nematodes)×100
First, 0.8 g of a commercially-available artificial feed (Insecta LFS, manufactured by Nosan Corporation) and 1 μl of the emulsion (I) were mixed well, and thereby, a test feed was obtained. Subsequently, 0.2 g of the test feed was placed in each of the treatment areas of a plastic test container (volume: 1.4 ml). Subsequently, two second-instar larvae of Mythimna separata were inoculated into each treatment area, and a plastic lid was placed on the test container to prevent the larvae from escaping. The closed container was placed in a thermostatic chamber at 25° C. On the 5th day therefrom, the insect mortality rate and the amount of feed consumed were checked. The test was repeated.
In addition, for a control area, the insect mortality rate and the amount of feed consumed were checked in the same manner as that described in Test Example 1, with the exception of replacing the emulsion (I) with the emulsion (II).

SMILES	insect mortality rate against Mythimna separata
O=S(=O)(N(c1cc(C(F)(F)F)ccc1-c1nc2cc(C(F)(F)F)ccc2[nH]1)S(=O)(=O)C(F)(F)F)C(F)(F)F [Compound 2-5]	100%
O=S(=O)(Nc1cc(C(F)(F)F)ccc1-n1ccc(-c2ccc(Cl)cc2)n1)C(F)(F)F [Compound 2-18]	100%
O=S(=O)(Nc1cc(C(F)(F)F)ccc1-c1ccc(C(F)(F)F)cn1)C(F)(F)F [Compound 2-36]	100%
Cc1c(Br)c(C(F)(F)F)nn1-c1ncc(C(F)(F)F)cc1NS(=O)(=O)C(F)(F)F [Compound 3-46]	100%
O=S(=O)(Nc1cc(C(F)(F)F)ccc1-n1ccc(-c2ccc(C(F)(F)F)cc2)n1)C(F)(F)F [Compound 2-22]	100%
O=S(=O)(Nc1cc(C(F)(F)F)ccc1-n1cc(-c2ccc(Cl)cc2)cn1)C(F)(F)F [Compound 2-16]	100%
O=S(=O)(Nc1cc(C(F)(F)F)ccc1-n1cnc(-c2ccc(Br)cc2)n1)C(F)(F)F [Compound 2-15]	100%
O=S(=O)(Nc1cc(C(F)(F)F)cnc1-c1cccc(C(F)(F)F)n1)C(F)(F)F [Compound 3-47]	100%
O=S(=O)(Nc1cc(C(F)(F)F)ccc1-c1nc2cc(C(F)(F)F)ccc2[nH]1)C(F)(F)F [Compound 2-6]	100%
O=S(=O)(Nc1cc(C(F)(F)F)ccc1-c1nc2cc(F)c(F)cc2[nH]1)C(F)(F)F [Compound 2-8]	100%
CCS(=O)(=O)Nc1cc(C(F)(F)F)ccc1-c1nc2cc(F)c(F)cc2[nH]1 [Compound 2-14]	100%
CCS(=O)(=O)Nc1cc(C(F)(F)F)ccc1-n1cnc(-c2ccc(Br)cc2)n1 [Compound 2-17]	100%
O=S(=O)(Nc1cc(C(F)(F)F)ccc1-c1nc(-c2ccc(Cl)cc2)no1)C(F)(F)F [Compound 2-25]	100%
O=S(=O)(Nc1cc(C(F)(F)F)ccc1-c1nc2cc(Cl)c(Cl)cc2[nH]1)C(F)(F)F [Compound 2-3]	100%
O=S(=O)(Nc1cc(F)c(F)cc1-c1nc2cc(F)c(F)cc2[nH]1)C(F)(F)F [Compound 2-9]	100%
O=S(=O)(CC(F)(F)F)Nc1cc(C(F)(F)F)cnc1-n1ccc(C(F)(F)F)n1 [Compound 3-8]	100%
